This assay concerns the target T1, Aβ₄₀ (L1 lipidic Aβ₄₀ fibril, amyloid beta 1-40) (Homo sapiens, UniProt P05067).
T1 construct: gene APP; Aβ(1-40), type 1 lipidic (L1) fibril of two protofilaments
The assay is described as follows: ITC on preformed L1 fibrils; supported by DNP-enhanced NHHC ssNMR contacts, (H)CANH titration and cryo-EM density. The format is binding.

The text below walks through data of PMC12494798, “Anle138b binds predominantly to the central cavity in lipidic Aβ₄₀ fibrils and modulates fibril formation” (Nature Communications, 2025).

T1 sequence (P05067 672-711): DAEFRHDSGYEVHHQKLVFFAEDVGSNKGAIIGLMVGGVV

With `Brc1cccc(-c2cc(-c3ccc4c(c3)OCO4)n[nH]2)c1` [anle138b, 3-(1,3-benzodioxol-5-yl)−5-(3-bromophenyl)−1H-pyrazole], the Kd (usually a measure of binding affinity in units of concentration) was 640 nM.
